Where two headings read alike, the source gives them in different places. One block for each compound: values may come before it.
Key:
[1] = In vitro dissolution testing under biorelevant media-change conditions; format: physicochemical; conditions: conditions without vs with omeprazole (gastric pH)
Description: In order to estimate the drug release rate in vivo and concomitant absorption profile, dissolution tests were performed under biorelevant media-change conditions (Table 3), using USP apparatus 2 (Erweka DT 800, Heusenstamm, Germany) at 37 ± 0.5 °C and rotational speed of 100 rpm. Withdrawn aliquots were filtered, diluted and analysed for gliclazide by UV spectrophotometry (UV-1700 spectrophotometer, Shimadzu, Japan). The absorbance obtained at 226 nm was corrected by subtracting the absorbance obtained at 290 nm, according to British Pharmacopeia. All measurements were performed in triplicate. The pH values and tablet residence time in each medium were selected based on the proposed biorelevant dissolution test conditions. […] Medium pH 6.0 was used to simulate the fed state luminal conditions in the ascending colon.

[2] = Population observational study of patients with T2D (GoDARTS): severe gliclazide-induced hypoglycemia; format: in vivo, human; conditions: gliclazide-treated cohort with genetic data (48 cases and 288 controls); OR (95% CI), p = 0.187
From the text: We used the Scottish Ambulance Service data and the Accident and Emergency diagnosis records to identify severe cases of hypoglycemia in Tayside and Fife, Scotland. […] Logistic regression was used to analyze the effect of the CYP2C19 variants and co-treatment with PPIs on gliclazide-induced hypoglycemia. All analyses were adjusted for known clinical predictors of hypoglycemia, including age, sex, age of T2D diagnosis, body mass index, creatinine and HbA1c [53], as well as the overall number of medications used as a proxy for comorbidities [54]. The CYP2C19 phenotypes were assigned based on diplotypes in the same manner as in healthy volunteers. The analyses were performed using SAS 9.3 (SAS Institute Inc., Cary, NC, USA). Statistical significance was set at p < 0.05.

[3] = single oral gliclazide, healthy Chinese volunteers, cited from earlier work
[4] = cited from earlier work
[5] = cited from earlier work; remark: listed apart in the source
[6] = system: CYP2C9; conditions: human liver microsomes, CYP selective inhibitors; cited from earlier work
[7] = system: OATP1B1; conditions: cited from earlier work
[8] = system: CYP2C19; experiment: CYP2C19-mediated metabolism (fm, intrinsic clearance); format: in vitro ADME, human
Description: (§1) Absorption was described by a first-order absorption model in line with previous studies. The steady-state volume of distribution (Vss) value was based on previous models.
(§2) The full PBPK model was developed for gliclazide using a middle-out approach. The Vss was predicted by Simcyp Rodgers et al. + ion membrane permeability model. […] The intrinsic clearances per pmol of CYP enzymes were calculated using total intrinsic clearance measured in vitro in human liver microsomes, and fm values obtained from in vivo data. […] Considering the difference in abundance and activity of the transporter between liver and the transfected cell line, a relative activity factor (RAF) was optimized to fit the observed clinical data. Liver passive diffusion clearance (ClPD) of gliclazide was estimated based on experimental logD7.4 value.

[9] = system: CYP2C9; experiment: CYP2C9-mediated metabolism (fm, intrinsic clearance); format: in vitro ADME, human; conditions: gliclazide; calculated from microsomal total intrinsic clearance [10], CYP abundances and fm [36]
Description: as §2

[10] = system: CYP2C19; conditions: cited from earlier work
[11] = gliclazide; ref Proks et al., 2018 [46]; cited from earlier work
[12] = Clinical trial on omeprazole-gliclazide interaction in healthy volunteers, CYP2C19 NM/RM/UM; format: in vivo, human; conditions: for AUC(0-t): male, human, serum, oral, 40 mg, gliclazide 40 mg tablet, current trial, geometric mean (95% CI), read-out: AUC0–24, observed
From the text: Fifteen healthy volunteers (men, age 18–30 years, non-smokers) with CYP2C19 NM/RM/UM status were recruited. The exclusion criteria included: a medical history of hepatic, renal, gastrointestinal or hematologic disease or any acute or chronic disease; drug allergy to sulfonylureas or PPIs; history of drug abuse; abnormalities in physical examination, ECG or routine clinical laboratory tests (including fasting blood glucose concentration); medication use during the 14 days prior to and during the study period; grapefruit, grapefruit juice, alcohol, beverages or food containing methylxanthines use during the 72 h prior to and during the study period.
On day 5 of each admission period, after an overnight fast, the volunteers were admitted to the hospital. […] Drugs were given in a sitting position, at 8 AM. Volunteers were not permitted to lie down or sleep for the next 4 h after taking drugs, as well as to perform any strenuous activities for the next 24 h. In order to counteract the blood glucose-lowering action of gliclazide, volunteers received standardized meals: breakfast at 30 min after gliclazide intake, snacks after 2 and 3 h, a lunch (warm meal) after 4 h, a snack after 6 h, dinner after 8 h, and additional snacks at 10 h and 12 h after drugs administration. No other food and drink (with the exception of water) were allowed. For safety reasons, the volunteers were under direct medical supervision throughout the 24 h following drugs administration. Fast-acting carbohydrates, glucose solution for i.v. use and glucagon for intramuscular use were available in case of hypoglycemia.
Venous blood samples were collected on day 5 of each admission period before dosing (0 h) and 0.5, 1, 1.5, 2, 2.5, 3, 3.5, 4, 4.5, 5, 6, 8, 10, 12, 15 and 24 h after gliclazide administration. Serum samples for gliclazide quantification were separated within 30 min following each blood sample collection and stored at −80 °C until the analysis.
Serum gliclazide concentrations were quantified using a validated stable isotope dilution liquid chromatography-tandem mass spectrometry (LC-MS/MS) method. In brief, a total of 10 µL serum was added to 90 µL acetonitrile containing 100 ng/mL of d4-gliclazide and 0.1% formic acid. […] Gliclazide was quantitated by the triple quadrupole mass spectrometer in ESI positive ion mode. […] The limit of quantification was 3.1 ng/mL.
PK parameters were calculated in a noncompartmental analysis using PKSolver, a program for PK data analysis in Microsoft Excel. The area under the plasma gliclazide concentration-time curve (AUC) up to the last concentration measured (AUC0–t) was determined using the linear trapezoidal rule.
The main evaluated outcome was systemic exposure to gliclazide, expressed as AUC0–t. The geometric mean was calculated for AUC0–24. […]

[13] = system: Mrp2; parameters: method as in PMID 18799822; conditions: cited from earlier work
[14] = system: CYP3A4; parameters: method as in PMID 24739523; conditions: omeprazole; average value for CYP2C19 EM/RM/UM phenotypes; cited from earlier work
[15] = system: CYP2C19; parameters: method as in Ogilvie et al., 2011 [27]; conditions: omeprazole; ref Ogilvie et al., 2011 [27]; cited from earlier work
[16] = system: CYP2C19; conditions: previous study based on omeprazole enantiomers; cited from earlier work
[17] = parameters: method as in Hassan-Alin et al., 2005 [30]; conditions: geometric mean (95% CI), ref Hassan-Alin et al., 2005 [30], cited from earlier work; for Cmax: read-out: Cmax, observed
[18] = omeprazole, cited from earlier work
[19] = system: CYP3A4; experiment: CYP3A4-mediated metabolism (fm, intrinsic clearance); format: in vitro ADME, human; conditions: omeprazole; retrograde calculated from observed Clpo after 20 mg single dose, fa*fg = 1
From the text: as §1

[20] = parameters: method as in PMID 11117653; conditions: healthy volunteers; cited from earlier work
[21] = gliclazide model input, ref Grbic et al., 2011 [40]
[22] = gliclazide 30 mg MR tablet, single oral, geometric mean (95% CI)
[23] = gliclazide 80 mg IR tablet, single oral, geometric mean (95% CI)
[24] = gliclazide i.v. infusion 30 mg, geometric mean (95% CI)
[25] = gliclazide, ref Chen et al., 2018 [37]
[26] = omeprazole model input, ref Ogilvie et al., 2011 [27]
[27] = first-order absorption model, ref Ogilvie et al., 2011 [27]

Initial gliclazide release rate between media pH 1.6 and pH 3.0 [1]: no difference
Odds ratio of hypoglycemia for the loss-of-function CYP2C19*2 allele [2]: 0.50 (0.18–1.40)
Clint CYP2C19 ([8]; gliclazide, calculated from microsomal total intrinsic clearance [10], CYP abundances and fm [36]): 0.273 µL/min/pmol
Clint CYP2C9 [9]: 0.004 µL/min/pmol
Geometric mean ratio of gliclazide AUC0–24, omeprazole phase/placebo phase ([12]; 40 mg gliclazide, 20 mg omeprazole 5 days, 14 healthy volunteers NM/RM/UM, ratio (90% CI)): 1.13 (0.86–1.48)
AUC(0-t) ([12]; omeprazole phase): 3730 ng·h/mL
AUC(0-t) ([12]; placebo phase): 3290 ng·h/mL
SMILES: Cc1ccc(S(=O)(=O)NC(=O)NN2CC3CCCC3C2)cc1 (stereo not drawn) [gliclazide]
Observed gliclazide AUC, fold higher in CYP2C19 PM compared to NM ([3]; ref 11): 3.4 fold
Observed gliclazide AUC, fold higher in CYP2C19 PM compared to NM ([3]; ref 12): 5.1 fold
Log P ([4]; gliclazide model input, ref El-Sabawi, et al., 2014 [45]): 2.04
Compound type [4, 21]: Ampholyte
pKa (first value) [4, 21]: 2.9
pKa (second value) [4, 21]: 5.8
AUC0–72, observed [5, 22]: 14.4 (12.4–16.8) µgh/mL
AUC0–∞, observed [5, 22]: 15.6 (13.5–18.1) µgh/mL
Cmax, observed [5, 22]: 0.71 (0.62–0.82) µg/mL
tmax, observed ([5]; gliclazide 30 mg MR tablet, single oral, median (minimum–maximum)): 7 (4–10) h
AUC0–48, observed [5, 23]: 45.5 (38.9–53.3) µgh/mL
AUC0–∞, observed [5, 23]: 50.9 (42.8–60.5) µgh/mL
Cmax, observed [5, 23]: 3.51 (3.24–3.80) µg/mL
tmax, observed [5, 23]: 3.66 (3.10–4.33) h
AUC0–72, observed [5, 24]: 15.5 (13.0–18.5) µgh/mL
AUC0–∞, observed [5, 24]: 17.2 (14.5–20.3) µgh/mL
Cmax, observed [5, 24]: 1.39 (1.16–1.67) µg/mL
Vss observed in humans in vivo ([5]; gliclazide): 0.19 to 0.46 L/kg
Contribution of CYP2C9 to gliclazide metabolism [6]: at least 65%
Substrate of hepatic OATP1B1 transporter [7]: substrate
Km [7, 25]: 30.2 µM
OATP1B1 Jmax [7, 25]: 12.9 pmol/min/10^6 cells
Contribution of CYP2C19 to gliclazide metabolism ([10]; human liver microsomes, CYP selective inhibitors): ≤ 35%
fu (fraction unbound) [11]: 0.15
Hypoglycemia or other adverse effects in the trial ([12]; 40 mg gliclazide with placebo or 20 mg omeprazole, healthy volunteers): no cases of hypoglycemia or any other adverse effect
Substrate for the efflux Mrp2 transporter in rats [13]: substrate

Clint CYP2C19 ([8]; omeprazole, retrograde calculated from observed Clpo after 20 mg single dose, fa*fg = 1): 75.1 µL/min/pmol
Clint CYP3A4 [19]: 0.39 µL/min/pmol
SMILES: COc1ccc2[nH]c([S+]([O-])Cc3ncc(C)c(OC)c3C)nc2c1 (stereo not drawn) [omeprazole]
fm CYP3A4 [14]: 14%
Ki [15]: 5 µM
Predicted lowest level of active CYP2C19, previous study [16]: 14%
Compound type [4, 26]: Ampholyte
pKa (first value) [4, 26]: 4.4
AUC0–∞, observed ([17]; omeprazole 20 mg day 1): 1.04 (0.64–1.72) µM × h
Cmax ([17]; omeprazole 20 mg day 1): 1040 nM
AUC0–∞, observed ([17]; omeprazole 20 mg day 5): 1.63 (0.96–2.78) µM × h
Cmax ([17]; omeprazole 20 mg day 5): 1430 nM
AUC0–∞, observed ([17]; omeprazole 40 mg day 1): 2.44 (1.53–3.91) µM × h
Cmax ([17]; omeprazole 40 mg day 1): 2320 nM
AUC0–∞, observed ([17]; omeprazole 40 mg day 5): 5.79 (3.60–9.33) µM × h
Cmax ([17]; omeprazole 40 mg day 5): 3870 nM
fm CYP2C19 ([10]; omeprazole, average value for CYP2C19 EM/RM/UM phenotypes): 86%
fa (fraction absorbed) [18, 27]: 1
ka (absorption rate constant) [18, 27]: 6 h⁻¹
Vss ([18]; minimal PBPK model, ref Deng 2016 [29], Wu et al., 2014 [28]): 0.15 L/kg
ClR (renal clearance) ([18]; ref Wu et al., 2014 [28], Feng et al., 2015 [42]): 0.037 L/h

SMILES: COc1ccnc(C[S+]([O-])c2nc3ccc(OC(F)F)cc3[nH]2)c1OC (stereo not drawn) [pantoprazole]
Effect of pantoprazole on glibenclamide PK [20]: no effect
